Read-outs that look alike come from different tables or passages of the source.
How the values were obtained:
[1] = tested on: Meloidogyne spp. (root-knot nematode); experiment: Meloidogyne spp. contact activity, preventive, cucumber seed in filter paper pouch; assay type: in vivo
Method: (§1) Filter papers (9 cm×4.5 cm) with a small pocket were placed into plastic pouches (12 cm×6 cm). One cucumber cv. Toshka seed was placed in the centre of the filter paper pocket of all the pouches needed for a test. […] Prior to application, the compound solution was prepared at twice the concentration required and the egg suspension is prepared with FORL nutrient solution with 3000 eggs/0.5 ml. After applying all the treatments, 3000 eggs (in 0.5 ml of FORL nutrient solution) were pipetted into the pouches. The pouches were incubated in a moist chamber for twelve days and watered regularly to maintain good filter paper moisture essential for the growing cucumber root system. After this period, the filter paper containing the germinated cucumber seedling was removed from the plastic pouch to assess the number of galls caused by Meloidogyne spp. per root system. Phytotoxicity was measured as a reduction of growth of the emerged cucumber seedling in comparison to the control.
as §1, with “system.” for “system. Phytotoxicity was measured as a reduction of growth of the emerged cucumber seedling in comparison to the control.”

LogP (Table 1) = assay type: physicochemical
M. incognita = experiment: Meloidogyne spp. contact activity, preventive, cucumber in pots treated with WP10 suspension; assay type: in vivo
Method: Cucumber cv. Toshka seeds were sown directly into pots filled with a sandy substrate. Six days later pots were each treated with 5 ml of a WP10 suspension of the test compound. Hereafter, pots were inoculated with 3000 eggs of M. incognita. The trial was harvested fourteen days after trial application and inoculation. Root galling was assessed according to Zeck's gall index (Zeck W. M. (1971) Ein Bonitierungsschema zur Feldauswertung von Wurzelgallenbefall. Pflanzenschutznachrichten Bayer 24, 1: 144-147). Phytotoxicity was measured as a reduction of growth of the emerged cucumber seedling in comparison to the control.

[2] = tested on: Pratylenchus zeae (Corn Lesion Nematode); experiment: Pratylenchus zeae contact activity, preventive, coated corn seeds; assay type: in vivo; conditions: seed treatment 1 mg Al/seed, corn cv. LG4620, 1500 nematodes, 7 days after inoculation
Method: Coated corn cv. LG4620 seeds were sown 1 cm deep into 45 ml pots with soil (7:3 w/w—a mixture of 70% field soil and 30% quartz Sand). Two days after sowing the pots were infested with 1500 nematodes (all stages) of Pratylenchus zeae within a 2 ml suspension in two holes to the left and right of the seed hole. Assessment of phytotoxicity (in %) and nematode numbers within the root system occurred 7 days after inoculation. The upper plant part was cut off and the roots were washed free of soil debris. Nematodes within the roots were stained with acid fuchsin stain solution. Nematodes within the roots were quantified under a dissecting scope at 40×. Seed treatment rate: 1 mg Al/seed

[3] = 1.6 ppm, cucumber pouch test, read-out: Mortality (%)
[4] = 8 ppm, cucumber pouch test, read-out: Mortality (%)
[5] = 40 ppm, cucumber pouch test, read-out: Mortality (%)
[6] = 200 ppm, cucumber pouch test, read-out: Mortality (%)
[7] = 0.16 ppm, cucumber pot test, read-out: Mortality (%)
[8] = 0.8 ppm, cucumber pot test, read-out: Mortality (%)
[9] = 4 ppm, cucumber pot test, read-out: Mortality (%)
[10] = 20 ppm, cucumber pot test, read-out: Mortality (%)

Compound: O=C(N[C@H]1CC[C@H]1c1ccc(Cl)cc1Cl)c1scnc1C(F)F [Example 9, N-[(1S,2S)-2-(2,4-dichlorophenyl)cyclobutyl]-4-(difluoromethyl)thiazole-5-carboxamide]
- mortality at 1.6 ppm [1, 3]: 0%
- mortality at 8 ppm [1, 4]: 64%
- mortality at 40 ppm [1, 5]: 81%
- mortality at 200 ppm [1, 6]: 98%
- logP (LogP (Table 1)): 3.25
- mortality at 0.16 ppm (M. incognita; [7]): 22%
- mortality at 0.8 ppm (M. incognita; [8]): 61%
- mortality at 4 ppm (M. incognita; [9]): 97%
- mortality at 20 ppm (M. incognita; [10]): 98%

Compound: Cc1nc(C(F)(F)F)c(C(=O)N[C@H]2CC[C@H]2c2ccc(Cl)cc2Cl)s1 [C, reference compound]
- mortality at 1.6 ppm [1]: 0%
- mortality at 8 ppm [1]: 0%
- mortality at 40 ppm [1]: 0%
- mortality at 200 ppm [1]: 0%
- mortality at 0.16 ppm (M. incognita): 0%
- mortality at 0.8 ppm (M. incognita): 0%
- mortality at 4 ppm (M. incognita): 0%
- mortality at 20 ppm (M. incognita): 0%

Compound: O=C(N[C@H]1CC[C@H]1c1ccc(Cl)cc1)c1scnc1C(F)(F)F [Example 4, N-[(1S,2S)-2-(4-chlorophenyl)cyclobutyl]-4-(trifluoromethyl)thiazole-5-carboxamide]
- logP (LogP (Table 1)): 3.21
- melting point: 103 to 108 °C

Compound: O=C(N[C@H]1CC[C@H]1c1ccc(Cl)cc1Cl)c1scnc1C(F)(F)F [Example 7, N-[(1S,2S)-2-(2,4-dichlorophenyl)cyclobutyl]-4-(trifluoromethyl)thiazole-5-carboxamide]
- mortality at 1.6 ppm [1, 3]: 77%
- mortality at 8 ppm [1, 4]: 90%
- mortality at 40 ppm [1, 5]: 98%
- mortality at 200 ppm [1, 6]: 99%
- logP (LogP (Table 1)): 3.44
- mortality at 0.16 ppm (M. incognita; [7]): 14%
- mortality at 0.8 ppm (M. incognita; [8]): 14%
- mortality at 4 ppm (M. incognita; [9]): 60%
- mortality at 20 ppm (M. incognita; [10]): 99%

Compound: O=C(N[C@H]1CC[C@H]1c1ccc(F)cc1Cl)c1scnc1C(F)(F)F [Example 5, N-[(1S,2S)-2-(2-chloro-4-fluoro-phenyl)cyclobutyl]-4-(trifluoromethyl)thiazole-5-carboxamide]
- logP (LogP (Table 1)): 2.92
- reduction of nematode population compared to the untreated control [2]: greater than 80%

Compound: O=C(N[C@H]1CC[C@H]1c1ccc(F)cc1F)c1scnc1C(F)F [Example 8, 4-(difluoromethyl)-N-[(1S,2S)-2-(2,4-difluorophenyl)cyclobutyl]thiazole-5-carboxamide]
- logP (LogP (Table 1)): 2.4

Compound: O=C(N[C@H]1CC[C@H]1c1ccc(F)cc1F)c1scnc1C(F)(F)F [Example 6, N-[(1S,2S)-2-(2,4-difluorophenyl)cyclobutyl]-4-(trifluoromethyl)thiazole-5-carboxamide]
- logP (LogP (Table 1)): 2.71
